Test results reported in patent US8633206B2, “Pyrrolo[2,3-D]pyrimidine compounds” (Pfizer Inc., priority 2009, dated 2014).

What was measured:
Format in all cases: biochemical
JAK3 = JAK3 (Homo sapiens (Human), UniProt P52333); test: JAK enzymatic assay (peptide mobility shift), JAK3; settings: recombinant JAK3 1 nM, JAKtide peptide, 90 minutes
Description: (§1) Recombinant JAK1 (Catalog Number PV4775), JAK2 (Catalog Number PV4210) and JAK3 (Catalog Number PV3855) were purchased from (Invitrogen Corporation, Madison, Wis.). […] Adenosine 5′-triphosphate (ATP) was obtained from (Sigma Chemical Company, St. Louis, Mo.). […] Coating Reagent 3 was purchased from (Caliper Life Sciences, Hopkinton, Mass.).
(§2) Compounds were diluted serially in 100% dimethyl sulfoxide and tested in an 11 point dose response in duplicate or quadruplicate (200 nl of compound/DMSO was added per 10 L reaction). […] The assay was run for 240 minutes for JAK1, 150 minutes for JAK2, 90 minutes for JAK3 and 70 minutes for Tyk2. […] The plates were placed on a LabChip 3000 (LC3000) instrument from (Caliper Life Sciences) to measure the formation of phosphorylated peptide. Data was analyzed using Hits Well Analyzer Software from (Caliper Life Sciences) to obtain the amount of product formed.
(§3) Data was then imported into an internal application where each data point is expressed as % inhibition based on uninhibited and no enzyme controls. Dose-response data is then fit using a 4 parameter logistic equation (Equation 1) to determine an IC50.

JAK1 = JAK1 (Homo sapiens (Human), UniProt P23458); test: JAK enzymatic assay (peptide mobility shift), JAK1; settings: recombinant JAK1 20 nM, IRS-1 peptide, 240 minutes
JAK1, sequence (P23458 whole entry): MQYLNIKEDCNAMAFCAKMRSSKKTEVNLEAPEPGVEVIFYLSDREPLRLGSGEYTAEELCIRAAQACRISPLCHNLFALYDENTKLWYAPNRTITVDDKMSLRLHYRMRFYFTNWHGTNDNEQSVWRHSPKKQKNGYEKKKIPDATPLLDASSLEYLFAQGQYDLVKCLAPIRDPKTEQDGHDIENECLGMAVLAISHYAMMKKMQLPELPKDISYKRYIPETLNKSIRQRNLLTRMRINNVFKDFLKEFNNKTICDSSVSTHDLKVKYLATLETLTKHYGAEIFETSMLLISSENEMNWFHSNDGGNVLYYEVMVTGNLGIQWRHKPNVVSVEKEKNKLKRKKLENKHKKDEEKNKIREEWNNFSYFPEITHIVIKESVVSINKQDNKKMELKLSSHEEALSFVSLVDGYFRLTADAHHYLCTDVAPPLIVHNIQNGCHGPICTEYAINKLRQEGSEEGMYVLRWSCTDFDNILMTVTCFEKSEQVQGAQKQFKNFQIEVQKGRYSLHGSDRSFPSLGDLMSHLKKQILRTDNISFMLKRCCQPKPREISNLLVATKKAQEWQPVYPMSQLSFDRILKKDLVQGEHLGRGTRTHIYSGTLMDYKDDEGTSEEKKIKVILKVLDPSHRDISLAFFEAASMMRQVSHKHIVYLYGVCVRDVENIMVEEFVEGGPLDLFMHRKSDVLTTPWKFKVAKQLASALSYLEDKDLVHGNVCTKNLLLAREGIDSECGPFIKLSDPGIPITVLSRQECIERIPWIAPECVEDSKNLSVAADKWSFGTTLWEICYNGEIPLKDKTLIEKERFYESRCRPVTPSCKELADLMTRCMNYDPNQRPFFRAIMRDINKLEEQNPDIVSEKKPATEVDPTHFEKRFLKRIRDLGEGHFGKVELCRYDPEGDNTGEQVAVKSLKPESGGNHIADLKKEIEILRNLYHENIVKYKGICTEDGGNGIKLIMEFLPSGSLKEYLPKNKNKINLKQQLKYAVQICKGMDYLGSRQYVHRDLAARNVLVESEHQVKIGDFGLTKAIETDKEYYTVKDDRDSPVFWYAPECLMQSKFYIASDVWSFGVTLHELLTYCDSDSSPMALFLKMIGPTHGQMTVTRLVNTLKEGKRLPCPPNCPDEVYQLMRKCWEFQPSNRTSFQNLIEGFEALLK
Description: as §1, §2, §3

JAK2 = JAK2 (Homo sapiens (Human), UniProt O60674); test: JAK enzymatic assay (peptide mobility shift), JAK2; settings: recombinant JAK2 2 nM, JAKtide peptide, 150 minutes
JAK2, sequence (O60674 808-1132): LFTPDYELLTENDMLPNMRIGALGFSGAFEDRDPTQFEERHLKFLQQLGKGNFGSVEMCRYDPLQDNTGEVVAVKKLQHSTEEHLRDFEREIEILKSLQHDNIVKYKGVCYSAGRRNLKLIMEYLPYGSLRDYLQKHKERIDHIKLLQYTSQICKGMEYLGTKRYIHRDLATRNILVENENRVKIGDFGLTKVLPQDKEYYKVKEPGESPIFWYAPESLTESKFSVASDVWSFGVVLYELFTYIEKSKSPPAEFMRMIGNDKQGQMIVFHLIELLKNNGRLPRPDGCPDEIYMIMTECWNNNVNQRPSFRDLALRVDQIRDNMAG
From the text: Recombinant JAK1 (Catalog Number PV4775), JAK2 (Catalog Number PV4210) and JAK3 (Catalog Number PV3855) were purchased from (Invitrogen Corporation, Madison, Wis.). Tyk2 (His-Tyk2 (888-1182, C936S, C1142S)) used in this study was expressed and purified at Pfizer Laboratories. Adenosine 5′-triphosphate (ATP) was obtained from (Sigma Chemical Company, St. Louis, Mo.). […] Coating Reagent 3 was purchased from (Caliper Life Sciences, Hopkinton, Mass.).
A peptide mobility shift assay was used to quantify the phosphorylation of the JAKtide (JAK2 and JAK3) or the IRS-1 peptide (JAK1 and Tyk2). Reactions were carried out in a 384-well plate (Matrical MP-101) in a 10 L total volume. […] Compounds were diluted serially in 100% dimethyl sulfoxide and tested in an 11 point dose response in duplicate or quadruplicate (200 nl of compound/DMSO was added per 10 L reaction). The reactions were initiated by the addition of enzyme to the final concentration of 2 nM JAK2, 1 nM JAK3, 12 nM Tyk2 or 20 nM JAK1. The assay was run for 240 minutes for JAK1, 150 minutes for JAK2, 90 minutes for JAK3 and 70 minutes for Tyk2. The assays were stopped at the specified times with 20 uL of 140 mM HEPES, 22.5 mM EDTA and 0.15% Coating Reagent 3. The plates were placed on a LabChip 3000 (LC3000) instrument from (Caliper Life Sciences) to measure the formation of phosphorylated peptide. Data was analyzed using Hits Well Analyzer Software from (Caliper Life Sciences) to obtain the amount of product formed.
as §3

JAK3, sequence (P52333 781-1124): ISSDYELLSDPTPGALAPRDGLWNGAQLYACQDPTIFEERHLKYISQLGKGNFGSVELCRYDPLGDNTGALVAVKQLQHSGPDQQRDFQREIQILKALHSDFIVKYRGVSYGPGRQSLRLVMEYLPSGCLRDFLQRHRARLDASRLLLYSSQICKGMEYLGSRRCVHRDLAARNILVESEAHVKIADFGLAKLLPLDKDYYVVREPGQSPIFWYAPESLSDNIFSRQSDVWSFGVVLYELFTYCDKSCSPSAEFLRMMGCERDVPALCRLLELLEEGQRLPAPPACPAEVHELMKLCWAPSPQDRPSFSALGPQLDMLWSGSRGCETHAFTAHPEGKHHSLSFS

Row | SMILES | IC50 (JAK3) [nM] | IC50 (JAK1) [nM] | IC50 (JAK2) [nM]
1 | CN(c1ncnc2[nH]ccc12)[C@H]1CC[C@H](CS(=O)(=O)N2CC(c3ncccn3)C2)CC1 [Example 110, N-methyl-N-(trans-4-{[(3-pyrimidin-2-ylazetidin-1-yl)sulfonyl]methyl}cyclo-hexyl)-7H-pyrrolo[2,3-d]pyrimidin-4-amine] | 294 | 16.4 | 22.6
2 | CN(c1ncnc2[nH]ccc12)[C@H]1CC[C@H](CS(=O)(=O)N2CCN(c3ncccc3C#N)CC2)CC1 [Example 122, 2-{4-[({trans-4-[methyl(7H-pyrrolo[2,3-d]pyrimidin-4-yl)amino]cyclohexyl}-methyl)sulfonyl]piperazin-1-yl}nicotinonitrile] | 271 | 12.1 | 17.6
3 | CN(c1ncnc2[nH]ccc12)[C@H]1CC[C@H](CS(=O)(=O)N2CCN(c3ncccc3C(=O)NC3CC3)CC2)CC1 [Example 121, N-cyclopropyl-2-{4-[({trans-4-[methyl(7H-pyrrolo[2,3-d]pyrimidin-4-yl)amino]-cyclohexyl}methyl)sulfonyl]piperazin-1yl}nicotinamide] | 595 | 10.4 | 43.1
4 | Cc1cccc(C[C@H]2CCCN2S(=O)(=O)C[C@H]2CC[C@H](N(C)c3ncnc4[nH]ccc34)CC2)n1 [Example 106, N-methyl-N-{trans-4-[({2-[(6-methylpyridin-2-yl)methyl]pyrrolidin-1-yl}sulfonyl)methyl]cyclo-hexyl}-7H-pyrrolo[2,3-d]pyrimidin-4-amine] | 322 | 3.6 | 24.3
5 | CN(c1ncnc2[nH]ccc12)[C@H]1CC[C@H](CS(=O)(=O)N2CC[C@H](Cc3cnccn3)C2)CC1 [Example 102, N-methyl-N-[trans-4-({[3-(pyrazin-2-ylmethyl)-pyrrolidin-1-yl]sulfonyl}-methyl)cyclohexyl]-7H-pyrrolo[2,3-d]pyrimidin-4-amine] | 283 | 19.9 | 28.6
6 | CN(c1ncnc2[nH]ccc12)[C@H]1CC[C@H](CS(=O)(=O)N2CCC[C@@](C)(O)C2)CC1 [Example 65, 3-methyl-1-[({trans-4-[methyl(7H-pyrrolo[2,3-d]-pyrimidin-4-yl)amino]-cyclohexyl}methyl)sulfonyl] piperidin-3-ol] | 431 | 7.6 | 40.9
7 | CN(c1ncnc2[nH]ccc12)[C@H]1CC[C@H](CS(=O)(=O)N2CC(O)C2)CC1 [Example 115, 1-[({trans-4-[methyl(7H-pyrrolo[2,3-d]pyrimidin-4-yl)amino]cyclohexyl}-methyl)sulfonyl]azetidin-3-ol] | 303 | 10.7 | 34.4
8 | CN(C)C(=O)CO[C@@H]1CCN(S(=O)(=O)C[C@H]2CC[C@H](N(C)c3ncnc4[nH]ccc34)CC2)C1 [Example 77, N,N-dimethyl-2-({(3R)-1-[({trans-4-[methyl(7H-pyrrolo[2,3-d]pyrimidin-4-yl)amino]cyclohexyl}-methyl)sulfonyl]pyrrolidin-3-yl}oxy)acetamide] | 644 | 10.1 | 50.2
9 | CN(c1ncnc2[nH]ccc12)[C@H]1CC[C@H](CS(=O)(=O)N2CCC[C@@](C)(CO)C2)CC1 [Example 63, {3-methyl-1-[({trans-4-[methyl(7H-pyrrolo[2,3-d]-pyrimidin-4-yl)amino]-cyclohexyl}methyl)sulfonyl]piperidin-3-yl}methanol] | 554 | 8.88 | 50.7
10 | CN(c1ncnc2[nH]ccc12)[C@H]1CC[C@H](CS(=O)(=O)N2CCCC3(CNC(=O)C3)C2)CC1 (stereo partly drawn) [Example 127, 7-[({trans-4-[methyl(7H-pyrrolo[2,3-d]pyrimidin-4-yl)amino]cyclohexyl}-methyl)sulfonyl]-2,7-diazaspiro[4.5]decan-3-one] | 1000 | 14.4 | 62.5
11 | CCN1CCN(C[C@H]2CCN(S(=O)(=O)C[C@H]3CC[C@H](N(C)c4ncnc5[nH]ccc45)CC3)C2)C(=O)C1=O [Example 105, 1-ethyl-4-({1-[({trans-4-[methyl(7H-pyrrolo[2,3-d]pyrimidin-4-yl)amino]cyclohexyl}methyl)-sulfonyl]pyrrolidin-3-yl}methyl)piperazine-2,3-dione] | 755 | 17.8 | 90.4
12 | CN(c1ncnc2[nH]ccc12)[C@H]1CC[C@H](CS(=O)(=O)N2C[C@](C)(CO)[C@](C)(CO)C2)CC1 [Example 79, {(3R,4S)-3,4-dimethyl-1-[({trans-4-[methyl(7H-pyrrolo[2,3-d]pyrimidin-4-yl)amino]cyclohexyl}methyl)-sulfonyl]pyrrolidine-3,4-diyl}dimethanol] | 580 | 14.4 | 55.6

Now those with a lower IC50 (JAK3), led by results:

Row | IC50 (JAK3) [nM] | IC50 (JAK1) [nM] | IC50 (JAK2) [nM] | SMILES
13 | 233 | 2.4 | 20.1 | CN(c1ncnc2[nH]ccc12)[C@H]1CC[C@H](CS(=O)(=O)N2CCC[C@H](CO)C2)CC1 [Example 62, {1-[({trans-4-[methyl(7H-pyrrolo[2,3-d]pyrimidin-4-yl)amino]cyclohexyl}-methyl)sulfonyl]piperidin-3-yl}methanol]
14 | 230 | 1.44 | 48.4 | CN(c1ncnc2[nH]ccc12)[C@H]1CC[C@H](CS(=O)(=O)N2CC[C@H](NC(=O)OC(C)(C)C)C2)CC1 [Example 26, tert-butyl {(3S)-1-[({trans-4-[methyl(7H-pyrrolo[2,3-d]pyrimidin-4-yl)amino]-cyclohexyl}methyl)sulfonyl]-pyrrolidin-3-yl}carbamate]
15 | 203 | 1.7 | 23.7 | CO[C@@H]1CCCN(S(=O)(=O)C[C@H]2CC[C@H](N(C)c3ncnc4[nH]ccc34)CC2)C1 [Example 60, N-(trans-4-{[(3-methoxy-piperidin-1-yl)sulfonyl]-methyl}cyclohexyl)-N-methyl-7H-pyrrolo[2,3-d]-pyrimidin-4-amine]
16 | 200 | 2.88 | 14.4 | CN(c1ncnc2[nH]ccc12)[C@H]1CC[C@H](CS(=O)(=O)N2CC[C@H](CO)C2)CC1 [Example 31, {(3S)-1-[({trans-4-[methyl(7H-pyrrolo[2,3-d]pyrimidin-4-yl)amino]-cyclohexyl}methyl)sulfonyl]-pyrrolidin-3-yl}-methanol]
17 | 112 | 3.06 | 8.36 | CN(c1ncnc2[nH]ccc12)[C@H]1CC[C@H](CS(=O)(=O)N2CC[C@@H](CO)C2)CC1 [Example 30, {(3R)-1-[({trans-4-[methyl(7H-pyrrolo[2,3-d]pyrimidin-4-yl)amino]-cyclohexyl}methyl)sulfonyl]-pyrrolidin-3-yl}-methanol]
18 | 96.6 | 4.45 | 17.5 | COc1ccccc1CS(=O)(=O)[C@H]1CCN(S(=O)(=O)C[C@H]2CC[C@H](N(C)c3ncnc4[nH]ccc34)CC2)C1 [Example 89, N-{trans-4-[({3-[(2-methoxybenzyl)sulfonyl]-pyrrolidin-1-yl}sulfonyl)-methyl]cyclohexyl}-N-methyl-7H-pyrrolo[2,3-d]-pyrimidin-4-amine]
19 | 80.8 | 2.52 | 8.54 | CN(c1ncnc2[nH]ccc12)[C@H]1CC[C@H](CS(=O)(=O)N2C[C@@H](O)[C@@H](O)C2)CC1 [Example 71, (3R,4S)-1-[({trans-4-[methyl(7H-pyrrolo[2,3-d]-pyrimidin-4-yl)amino]-cyclohexyl}methyl)sulfonyl] pyrrolidine-3,4-diol]
20 | 55.7 | 3.27 | 5.72 | CN(c1ncnc2[nH]ccc12)[C@H]1CC[C@H](CS(=O)(=O)N2CC[C@H](c3ncccn3)C2)CC1 [Example 87, N-methyl-N-(trans-4-{[(3-pyrimidin-2-ylpyrrolidin-1-yl)sulfonyl]methyl}cyclo-hexyl)-7H-pyrrolo[2,3-d]pyrimidin-4-amine]
21 | 1.29 | 0.0245 | 0.109 | CN1CCN(S(=O)(=O)C[C@H]2CC[C@H](N(C)c3ncnc4[nH]ccc34)CC2)CC1 [Example 136, N-methyl-N-(trans-4-{[(4-methylpiperazin-1-yl)sulfonyl]methyl}cyclohexyl)-7H-pyrrolo[2,3-d]pyrimidin-4-amine]
